Measured values: patent publication US20250136722A1, “CYTOTOXICITY TARGETING CHIMERAS” (GLAXOSMITHKLINE INTELLECTUAL PROPERTY DEVELOPMENT LIMITED, priority 2021, published 2025)
Values joined by “and” are separate entries in the source; they are usually repeats but may differ in a detail not shown here. Equal values may be shown once.

Assays:
[1] = biological target: Anti-cotinine antibody (SEQ ID NO: 11 / SEQ ID NO: 12, rabbit variable region with human IgG1 Fc domain); test: Binding of anti-cotinine antibody to ARM compounds by SPR, Biacore T200, 37° C. (Example 202); conditions: pH 7.4, rabbit variable region/human IgG1 Fc antibody captured on protein A
Experimental: Anti-cotinine antibodies having a heavy chain sequence of SEQ ID NO: 11 and a light chain sequence of SEQ ID NO: 12 (rabbit variable region with human IgG1 Fc domain containing a DE mutation (S239D/1332E)) were captured on one or more flow cells of a protein A sensor chip (Cytiva) using a Biacore T200 while reserving flow cell 1 as a reference. Following capture, a 3000 second wait step was included to reduce drift during compound analysis. ARM compounds of Formula (I) were then injected at 100 μL/min with 200 and 2000 second association and dissociation times. The entire experiment was run at 37° C. with running buffer containing 10 mM HEPES pH 7.4, 150 mM NaCl, 0.005% P20 and 1% DMSO. ARM compounds of Formula (I) were titrated with a top concentration of 200 nM using a 3-fold 5-point dilution series and a corresponding 5-injection buffer cycle was run for blank subtraction. Data were double referenced by subtracting the response of the reference flow cell from that of the antibody-containing flow cell and subsequently subtracting the referenced blank sensorgrams. Following compound analysis, the surface was regenerated using a 30 second injection of pH 1.5 glycine at a flow rate of 30 μL/min after which antibody was re-captured. The experiment was run using Biacore T200 control software and evaluated using Biacore T200 Evaluation software. Curves were fit with a 1:1 kinetic binding model to obtain kon(1/Ms), koff(1/s), Kd (M) determined as koff/kon, and residence time determined as 1/koff. (s).
Anti-cotinine antibody was tested for binding to ARMs compounds of Formula (I) of the invention in the above assay in or more experimental runs and the results are shown in Table 5 below. Affinity is reported as a pKd value. The pKd value is the negative log of the Kd value, wherein the Kd value is the dissociation constant measured in molar (M) as noted above. For compounds tested in more than one experimental run, the pKd value is reported as an average.

[2] = biological target: T1, CHOK1 cells engineered to overexpress human CCR2 (Homo sapiens, UniProt P41597); test: Antibody dependent cellular cytotoxicity (ADCC) reporter assay (Example 199); format: cell-based; conditions: with anti-cotinine antibody SEQ ID NO: 11/12; CHOK1-human CCR2 target cells, Jurkat FcγRIIIa NFAT-luciferase reporter cells; 12-18 hours; read-out: ADCC Reporter Assay pEC50 (converted)
T1 construct: expressed in transfected cells; host or cells: CHOK1 cells
Outline: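 Potency is reported as pEC50 from a nonlinear fit, averaged over runs, using luciferase signal divided by that of compound-free wells. The readout comes from NFAT-luciferase Jurkat cells expressing FcγRIIIa, mixed for 12–18 h with human CCR2-overexpressing CHOK1 cells, 1 pM–10 μM ARM compound and 0.01–200 μg/mL Fc-enhanced anti-cotinine IgG1.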

Compound | pKd of Antibody for ARM Compound of Formula (I) [1] | EC50 [2]
CC(C)N(C)[C@@H]1CC[C@H](N2CC[C@H](Nc3ncnc4ccc(C(F)(F)F)cc34)C2=O)[C@H](NC(=O)[C@H]2CC[C@H](NC(=O)CCCO[C@H]3CC[C@@H](OCCNC(=O)[C@H]4CC(=O)N(C)[C@@H]4c4cccnc4)CC3)CC2)C1 [Example 4] | 9.526 | 6.3 nM and 2.79 nM and 4.89 nM
CC(C)N(C)[C@@H]1CC[C@H](N2CC[C@H](Nc3ncnc4ccc(C(F)(F)F)cc34)C2=O)[C@H](NC(=O)CCOCCNC(=O)CCCO[C@H]2CC[C@@H](OCCNC(=O)[C@H]3CC(=O)N(C)[C@@H]3c3cccnc3)CC2)C1 [Example 6] | 9.282 | 0.378 nM
CC(C)N(C)[C@@H]1CC[C@H](N2CC[C@H](Nc3ncnc4ccc(C(F)(F)F)cc34)C2=O)[C@H](NC(=O)[C@H]2CC[C@H](CNC(=O)CCCC(=O)NCCCOCCCNC(=O)[C@H]3CC(=O)N(C)[C@@H]3c3cccnc3)CC2)C1 [Example 20] | 8.8705 | 0.0832 nM
CC(C)N(C)[C@@H]1CC[C@H](N2CC[C@H](Nc3ncnc4ccc(C(F)(F)F)cc34)C2=O)[C@H](NC(=O)C2CCN(C(=O)CCOCCOCCOCCNC(=O)[C@H]3CC(=O)N(C)[C@@H]3c3cccnc3)CC2)C1 [Example 29] | 9.3345 | 12.6 nM
CN1C(=O)C[C@H](C(=O)NCCOCCOCCOCCC(=O)N[C@H]2CC[C@H](C(=O)N[C@@H]3C[C@H](NC(C)(C)C)CC[C@@H]3N3CC[C@H](Nc4ncnc5ccc(C(F)(F)F)cc45)C3=O)CC2)[C@H]1c1cccnc1 [Example 31] | 9.3015 | 7.94 nM
CC(C)N(C)[C@@H]1CC[C@H](N2CC[C@H](Nc3ncnc4ccc(C(F)(F)F)cc34)C2=O)[C@H](NC(=O)[C@H]2CC[C@H](CNC(=O)CCOCCOCCOCCNC(=O)[C@H]3CC(=O)N(C)[C@@H]3c3cccnc3)CC2)C1 [Example 32] | 9.1825 | 1.07 nM and 0.593 nM
CC(C)N(C)[C@@H]1CCC(N2CC[C@H](Nc3ncnc4ccc(C(F)(F)F)cc34)C2=O)[C@H](NC(=O)CCOCCOCCOCCOCCOCCOCCOCCOCCNC(=O)[C@H]2CC(=O)N(C)[C@@H]2c2cccnc2)C1 (stereo partly drawn) [Example 42] | 9.23 | 0.398 nM
CC(C)N(C)[C@@H]1CC[C@H](N2CC[C@H](Nc3ncnc4ccc(C(F)(F)F)cc34)C2=O)[C@H](NC(=O)CCOCCNC(=O)CCOCCNC(=O)CCOCCNC(=O)[C@H]2CC(=O)N(C)[C@@H]2c2cccnc2)C1 [Example 46] | 9.074 | 0.501 nM
CC(C)N(C)[C@@H]1CC[C@H](N2CC[C@H](Nc3ncnc4ccc(C(F)(F)F)cc34)C2=O)[C@H](NC(=O)COCCNC(=O)CCOCCNC(=O)CCOCCNC(=O)[C@H]2CC(=O)N(C)[C@@H]2c2cccnc2)C1 [Example 47] | 9.051 | 2.84 nM
CC(C)N(C)[C@@H]1CC[C@H](N2CC[C@H](Nc3ncnc4ccc(C(F)(F)F)cc34)C2=O)[C@H](NC(=O)COCCNC(=O)CCOCCOCCNC(=O)CCNC(=O)[C@H]2CC(=O)N(C)[C@@H]2c2cccnc2)C1 [Example 50] | 9.1485 | 1.41 nM
CC(C)N(C)[C@@H]1CC[C@H](N2CC[C@H](Nc3ncnc4ccc(C(F)(F)F)cc34)C2=O)[C@H](NC(=O)[C@H]2C[C@H](NC(=O)CCOC[C@H]3CC[C@H](COCCNC(=O)[C@H]4CC(=O)N(C)[C@@H]4c4cccnc4)CC3)C2)C1 [Example 54] | 9.5515 | 1 nM

The next lines start with results.

pKd of Antibody for ARM Compound of Formula (I) [1] | Compound | EC50 [2]
9.4085 | CC(C)N(C)[C@@H]1CC[C@H](N2CC[C@H](Nc3ncnc4ccc(C(F)(F)F)cc34)C2=O)[C@H](NC(=O)[C@H]2C[C@@H](NC(=O)CCOC[C@H]3CC[C@H](COCCNC(=O)[C@H]4CC(=O)N(C)[C@@H]4c4cccnc4)CC3)C2)C1 [Example 55] | 0.377 nM
9.3185 | CC(C)N(C)[C@@H]1CC[C@H](N2CC[C@H](Nc3ncnc4ccc(C(F)(F)F)cc34)C2=O)[C@H](NC(=O)[C@H]2CC[C@@H](NC(=O)CCCC(=O)NCCCC(=O)NCCCNC(=O)[C@H]3CC(=O)N(C)[C@@H]3c3cccnc3)CC2)C1 [Example 56, N-((1S,4s)-4-(((1R,2S,5R)-5-(Isopropyl(methyl)amino)-2-((S)-2-oxo-3-((6-(trifluoromethyl)quinazolin-4-yl)amino)pyrrolidin-1-yl)cyclohexyl)carbamoyl)cyclohexyl)-N^5-(4-((3-((2S,3S)-1-methyl-5-oxo-2-(pyridin-3-yl)pyrrolidine-3-carboxamido)propyl)amino)-4-oxobutyl)glutaramide] | 0.655 nM and 0.128 nM
8.648 | CN1C(=O)C[C@H](C(=O)NCC(=O)NCCOCCOCCC(=O)N[C@H]2CC[C@@H](C(=O)N[C@@H]3C[C@H](NC(C)(C)C)CC[C@@H]3N3CC[C@H](Nc4ncnc5ccc(C(F)(F)F)cc45)C3=O)CC2)[C@H]1c1cccnc1 [Example 65] | 1.4 nM and 0.498 nM
8.649 | CC(C)N(C)[C@@H]1CC[C@H](N2CC[C@H](Nc3ncnc4ccc(C(F)(F)F)cc34)C2=O)[C@H](NC(=O)[C@H]2C[C@@H](NC(=O)CCOCCOCCNC(=O)CNC(=O)[C@H]3CC(=O)N(C)[C@@H]3c3cccnc3)C2)C1 [Example 66] | 0.431 nM
9.091 | CC(C)N(C)[C@@H]1CC[C@H](N2CC[C@H](Nc3ncnc4ccc(C(F)(F)F)cc34)C2=O)[C@H](NC(=O)COCCOCCNC(=O)COCCNC(=O)CCNC(=O)[C@H]2CC(=O)N(C)[C@@H]2c2cccnc2)C1 [Example 74, (2S,3S)-N-(1-(((1R,2S,5R)-5-(isopropyl(methyl)amino)-2-((S)-2-oxo-3-((6-(trifluoromethyl)quinazolin-4-yl)amino)pyrrolidin-1-yl)cyclohexyl)amino)-1,10,16-trioxo-3,6,12-trioxa-9,15-diazaoctadecan-18-yl)-1-methyl-5-oxo-2-(pyridin-3-yl)pyrrolidine-3-carboxamide] | 9.64 nM
9.103 | CC(C)N(C)[C@@H]1CC[C@H](N2CC[C@H](Nc3ncnc4ccc(C(F)(F)F)cc34)C2=O)[C@H](NC(=O)CCOCCOCCNC(=O)COCCNC(=O)CCNC(=O)[C@H]2CC(=O)N(C)[C@@H]2c2cccnc2)C1 [Example 75] | 1.63 nM
9.126 | CC(C)N(C)[C@@H]1CC[C@H](N2CC[C@H](Nc3ncnc4ccc(C(F)(F)F)cc34)C2=O)[C@H](NC(=O)COCCNC(=O)CCNC(=O)COCCOCCNC(=O)[C@H]2CC(=O)N(C)[C@@H]2c2cccnc2)C1 [Example 79] | 5.2 nM
9.109 | CC(C)N(C)[C@@H]1CC[C@H](N2CC[C@H](Nc3ncnc4ccc(C(F)(F)F)cc34)C2=O)[C@H](NC(=O)COCCNC(=O)CNC(=O)CCOCCOCCNC(=O)[C@H]2CC(=O)N(C)[C@@H]2c2cccnc2)C1 [Example 80] | 1.58 nM
9.302 | CC(C)N(C)[C@@H]1CC[C@H](N2CC[C@H](Nc3ncnc4ccc(C(F)(F)F)cc34)C2=O)[C@H](NC(=O)[C@H]2CC[C@@H](NC(=O)CNC(=O)CCOCCOCCNC(=O)[C@H]3CC(=O)N(C)[C@@H]3c3cccnc3)CC2)C1 [Example 83] | 0.269 nM
9.6885 | CC(C)N(C)[C@@H]1CC[C@H](N2CC[C@H](Nc3ncnc4ccc(C(F)(F)F)cc34)C2=O)[C@H](Nc2c(NCCOCCOCCOCCOCCOCCNC(=O)[C@H]3CC(=O)N(C)[C@@H]3c3cccnc3)c(=O)c2=O)C1 [Example 85, (2S,3S)-N-(17-((2-(((1R,2S,5R)-5-(Isopropyl(methyl)amino)-2-((S)-2-oxo-3-((6-(trifluoromethyl)quinazolin-4-yl)amino)pyrrolidin-1-yl)cyclohexyl)amino)-3,4-dioxocyclobut-1-en-1-yl)amino)-3,6,9,12,15-pentaoxaheptadecyl)-1-methyl-5-oxo-2-(pyridin-3-yl)pyrrolidine-3-carboxamide] | 8.24 nM
